Source: PubChem BioAssay (NCI)
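Dose response: 5 concentrations. Exposure: 48 h. Format: 96-well plates. Endpoint: linear interpolation; highest concentration if not reached. GI50 is the concentration that inhibits growth by half. TGI marks complete inhibition of growth.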

Tests used:
Test in all cases: NCI tumour cell line growth inhibition, 48 h
[1] = tested on: OVCAR-5 ovarian
[2] = tested on: SK-OV-3 ovarian
[3] = tested on: COLO 205 colon
[4] = tested on: HCT-116 colon
[5] = tested on: SW-620 colon
[6] = tested on: HOP-62 NSCLC
[7] = tested on: SF-539 CNS
[8] = tested on: DU-145 prostate
[9] = tested on: SK-MEL-28 melanoma
[10] = tested on: TK-10 renal

## CC12O[C@H](c3ccccc3)[C@H](c3ccccc3)N1C(=O)C1(C(=O)OCc3ccccc3)CC12 (some centres undefined)
[1]
  TGI: > 100 µM
[2]
  TGI: > 100 µM
[3]
  TGI: > 100 µM
[4]
  TGI: > 100 µM
[5]
  TGI: > 100 µM
[6]
  TGI: > 100 µM

## CCN1/C(=C/c2ccc3ccccc3[n+]2CC)C=Cc2ccccc21
[7]
  TGI: 13.7 µM
[8]
  TGI: 15.7 µM
[1]
  TGI: 24.4 µM
[9]
  TGI: 15.9 µM
[10]
  TGI: 26.4 µM
[4]
  TGI: 11.7 µM
[5]
  TGI: 14.5 µM
[6]
  TGI: 13.9 µM

## Cc1ccc(NC(=O)CC(=O)n2nc(-c3ccccc3)c(N=Nc3ccc(Cl)cc3)c2-c2ccccc2)cc1
[7]
  TGI: 85.6 µM
[1]
  TGI: > 100 µM
[9]
  TGI: > 100 µM
[2]
  TGI: > 100 µM
[10]
  TGI: 72 µM
[3]
  TGI: > 100 µM
[4]
  TGI: 33.8 µM
[5]
  TGI: 31 µM
[6]
  TGI: > 100 µM

## CC1(C)OCC2OC3([C@H](O)CCO)OC(C)(C)OC3C2O1 (some centres undefined)
[7]
  TGI: > 100 µM
[8]
  TGI: > 100 µM
[1]
  TGI: > 100 µM
[9]
  TGI: > 100 µM
[3]
  TGI: > 100 µM
[4]
  TGI: > 100 µM
[5]
  TGI: > 100 µM
[6]
  TGI: > 100 µM

## Cc1cc(N(CCC#N)CCC#N)ccc1/C=C(\NC(=O)/C=C/c1ccccc1)NC(=O)Nc1ccc(Cl)cc1
[7]
  TGI: > 100 µM
[1]
  TGI: > 100 µM
[9]
  TGI: > 100 µM
[3]
  TGI: > 100 µM
[4]
  TGI: > 100 µM
[5]
  TGI: > 100 µM

## C[C@@]12CC[C@H]3[C@@H]4CCC(=O)N[C@@]4(C)CC[C@@H]3[C@@]1(C)CC[C@H](OC(=O)Cc1ccc(N(CCCl)CCCl)cc1)C2
[7]
  TGI: 33.4 µM
[1]
  TGI: 31.5 µM
[9]
  TGI: 33 µM
[2]
  TGI: 28.5 µM
[3]
  TGI: 38.3 µM
[4]
  TGI: 29.9 µM
[5]
  TGI: 34.1 µM
[6]
  TGI: 31.1 µM

## O=[N+]([O-])c1ccc(NC2OCC(O)C(O)C2O)cc1 (centres undefined)
[7]
  TGI: > 100 µM
[9]
  TGI: > 100 µM
[2]
  TGI: > 100 µM
[10]
  TGI: > 100 µM
[3]
  TGI: > 100 µM
[5]
  TGI: > 100 µM
[6]
  TGI: > 100 µM

## CN(C)c1ccc(/C=C/c2sc3ccc4ccccc4c3[n+]2C)cc1
[2]
  GI50: 0.482 µM
  TGI: 2.4 µM
[10]
  GI50: 0.41 µM
  TGI: 1.92 µM

## CN1CCN(CC(=O)Nc2ccc3ncnc(Nc4ccc(Oc5cccc(C(F)(F)F)c5)c(Cl)c4)c3c2)CC1
[7]
  GI50: 1.6 µM
  TGI: 2.99 µM
[8]
  GI50: 1.4 µM
  TGI: 2.71 µM
[1]
  GI50: 1.58 µM
  TGI: 2.98 µM
[9]
  GI50: 1.71 µM
  TGI: 3.16 µM
[10]
  GI50: 1.25 µM
  TGI: 2.83 µM
[5]
  GI50: 1.72 µM
  TGI: 3.25 µM

## O=c1ccc2ccccc2o1
[7]
  TGI: > 100 µM
[1]
  TGI: > 100 µM
[9]
  TGI: > 100 µM
[2]
  TGI: > 100 µM
[10]
  TGI: > 100 µM
[3]
  TGI: > 100 µM
[4]
  TGI: > 100 µM
[5]
  TGI: > 100 µM
[6]
  TGI: > 100 µM

## NC(=O)N/N=C(\Cc1nc2ccc(C(=O)c3ccccc3)cc2[nH]c1=O)C(=O)Nc1ccc(Br)cc1
[7]
  TGI: > 100 µM
[1]
  TGI: > 100 µM
[9]
  TGI: > 100 µM
[2]
  TGI: > 100 µM
[10]
  TGI: > 100 µM
[4]
  TGI: > 100 µM
[5]
  TGI: > 100 µM
[6]
  TGI: > 100 µM

## COc1cc(/C=C2\N=C(c3ccccc3)N(C3Nc4cc5c(cc4S3)NC(N3C(=O)/C(=C/c4cc(OC)c(OC)c(OC)c4)N=C3c3ccccc3)S5)C2=O)cc(OC)c1OC (centres undefined)
[7]
  TGI: > 100 µM
[8]
  TGI: > 100 µM
[1]
  TGI: > 100 µM
[9]
  TGI: > 100 µM
[10]
  TGI: > 100 µM
[4]
  TGI: > 100 µM
[5]
  TGI: > 100 µM
[6]
  TGI: > 100 µM

## Nc1nc2c(ncn2CCOC(c2ccccc2)P(=O)(O)O)c(=O)[nH]1 (centres undefined)
[7]
  TGI: > 100 µM
[1]
  TGI: > 100 µM
[9]
  TGI: > 100 µM
[2]
  TGI: > 100 µM
[10]
  TGI: > 100 µM
[3]
  TGI: > 100 µM
[4]
  TGI: > 100 µM
[5]
  TGI: > 100 µM

## CC1=C/C(=N/N2C(=O)/C(=C/c3ccc(Cl)cc3)N=C2c2ccccc2)CC(C)(C)C1
[7]
  TGI: > 100 µM
[1]
  TGI: > 100 µM
[9]
  TGI: > 100 µM
[2]
  TGI: > 100 µM
[10]
  TGI: > 100 µM
[3]
  TGI: > 100 µM
[4]
  TGI: > 100 µM
[5]
  TGI: > 100 µM
[6]
  TGI: > 100 µM

## CCc1cccc(C(C)C)c1NC(=O)C(=O)C(C(=O)C(=O)OC)c1nc2ccccc2[nH]c1=O (centres undefined)
[1]
  TGI: > 100 µM
[9]
  TGI: > 100 µM
[2]
  TGI: > 100 µM
[10]
  TGI: > 100 µM
[3]
  TGI: > 100 µM
[4]
  TGI: > 100 µM
[5]
  TGI: > 100 µM

## CCSc1nc2sc(C)c(C)c2c(=O)n1-c1ccc(C(=O)O)cc1
[7]
  TGI: 55 µM
[1]
  TGI: > 100 µM
[9]
  TGI: > 100 µM
[2]
  TGI: > 100 µM
[10]
  TGI: > 100 µM
[3]
  TGI: > 100 µM
[4]
  TGI: 74.3 µM
[5]
  TGI: > 100 µM
[6]
  TGI: > 100 µM

## Cc1cc(Cc2cc(C)c(NC(=O)C(=O)C3C(=O)NC(=S)NC3=O)c(C(C)C)c2)cc(C(C)C)c1NC(=O)C(=O)C1C(=O)NC(=S)NC1=O
[1]
  TGI: > 100 µM
[9]
  TGI: > 100 µM
[2]
  TGI: > 100 µM
[10]
  TGI: > 100 µM
[3]
  TGI: > 100 µM
[4]
  TGI: > 100 µM
[5]
  TGI: > 100 µM
[6]
  TGI: > 100 µM

## Cn1c(-c2csc(-c3ccc(Cl)cc3)n2)n[nH]c1=S
[7]
  TGI: 46.7 µM
[1]
  TGI: > 100 µM
[9]
  TGI: > 100 µM
[2]
  TGI: 32 µM
[10]
  TGI: 40.2 µM
[3]
  TGI: > 100 µM
[4]
  TGI: 40.9 µM
[5]
  TGI: > 100 µM
[6]
  TGI: 30.2 µM

## CN(C)C(=O)CC(C(=O)O)c1c[nH]c2ccccc12 (centres undefined)
[7]
  TGI: > 100 µM
[10]
  TGI: > 100 µM
[3]
  TGI: > 100 µM
[4]
  TGI: > 100 µM
[5]
  TGI: > 100 µM
[6]
  TGI: > 100 µM
